This assay deals with T1, CB1 receptor (Homo sapiens, UniProt P21554).
T1 construct: expressed in transfected cells
In words: [35S]-GTPγS binding assay on membranes from cells stably transfected with the CB1 gene, inhibition of agonist CP55940 (EC80). The class given is biochemical. The following applies: half maximal inhibition of GTPγS binding, EC80 concentration of CP55940. The procedure:
10 μg of membranes prepared from cells stably transfected with the CB1 gene were suspended in 200 μl of 100 mM NaCl, 5 mM MgCl2, 1 mM EDTA, 50 mM HEPES (pH 7.4), 1 mM DTT, 0.1% BSA and 100 μM GDP. To this was added an EC80 concentration of agonist (CP55940), the required concentration of test compound and 0.1 μCi [^35S]-GTPγS. The reaction was allowed to proceed at 30° C. for 45 min. Samples were then transferred on to GF/B filters using a cell harvester and washed with wash buffer (50 mM Tris (pH 7.4), 5 mM MgCl2, 50 mM NaCl). Filters were then covered with scintilant and counted for the amount of [^35S]-GTPγS retained by the filter.
Activity is measured in the absence of all ligands (minimum activity) or in the presence of an EC80 concentration of CP55940 (maximum activity). These activities are set as 0% and 100% activity respectively. At various concentrations of novel ligand, activity is calculated as a percentage of the maximum activity and plotted. The data are fitted using the equation y=A+((B−A)/1+((C/x)UD)) and the IC50 value determined as the concentration required to give half maximal inhibition of GTPγS binding under the conditions used.
(In general: GTPγS resists hydrolysis and so accumulates on activated G proteins.)

For one molecule, IC50 results are on record in patent US20080146614A1, “Therapeutic Agents” (priority 2004, published 2008).

A word on the IC50: it is the midpoint of a concentration-inhibition curve. A low value points to greater potency in that assay.

T1 sequence (P21554 whole entry): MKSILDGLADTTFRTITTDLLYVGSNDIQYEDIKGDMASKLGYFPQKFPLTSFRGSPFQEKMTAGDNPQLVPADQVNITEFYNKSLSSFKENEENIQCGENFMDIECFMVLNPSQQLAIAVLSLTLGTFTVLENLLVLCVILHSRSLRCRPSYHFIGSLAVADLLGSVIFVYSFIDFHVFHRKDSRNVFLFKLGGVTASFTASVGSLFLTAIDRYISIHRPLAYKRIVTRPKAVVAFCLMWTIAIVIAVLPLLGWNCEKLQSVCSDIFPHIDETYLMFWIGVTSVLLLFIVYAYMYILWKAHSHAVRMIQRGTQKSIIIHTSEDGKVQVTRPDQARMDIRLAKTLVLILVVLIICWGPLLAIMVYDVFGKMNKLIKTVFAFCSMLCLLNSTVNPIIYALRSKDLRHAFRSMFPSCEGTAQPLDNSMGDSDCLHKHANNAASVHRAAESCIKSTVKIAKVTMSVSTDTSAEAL

As to `CCCS(=O)(=O)Oc1ccc(-c2c(CO)c(C(=O)NN3CCCCC3)nn2-c2ccc(Cl)cc2Cl)cc1` [Example 1, Propane-1-sulfonic acid 4-[2-(2,4-dichlorophenyl)-4-hydroxymethyl-5-(piperidin-1-ylcarbamoyl)-2H-pyrazol-3-yl]-phenyl ester], the half-maximal inhibitory concentration (IC50) came to 3.3 nM.
